As a reminder, the IC50 is the concentration that gives 50% inhibition.

The test system of series [1] is rats with Partial Sciatic Nerve Ligation (PSNL). In words: Partial Sciatic Nerve Ligation (PSNL) thermal hyperalgesia test. The class given is in vivo, rat. Particulars: 50 μM. As for the experimental part: FIG. 9. […] Time-course of the effects of 50 μM (100 μL) of AppCH2ppA on PWL.
PSNL, with tight ligation of 33-50% of the sciatic nerve trunk, is a neuropathic pain model. We sub-cutaneously injected 50 μM of AppCH2ppA ([…]) on thermal hyperalgesia in rats with PSNL. […] Results are expressed as mean+/−S.E.M. In this model, the antinociceptive effect is 62%.

In series [2] the test system is male Wistar rats. The series is described as follows: Formalin test (nociceptive behaviour, spontaneous jerking of injected paw). The class given is in vivo, rat. The following applies: for nociceptive behavior after control injection of compound alone: 100 μM (100 μL), no formalin; for IC50: Rattus norvegicus; for IC50 First phase (acute pain), calculated / IC50 Second phase (chronic pain), calculated: Table 1, assuming 40 g rat body weight; for First phase (acute pain) / First phase (acute pain) (μg/kg) / Second phase (chronic pain) / Second phase (chronic pain) (μg/kg): Table 2; for First phase (acute pain) Human (70 kg) nmol / Second phase (chronic pain) Human (70 kg) nmol: Table 2, estimated indicative dose for 70 kg human; for First phase (acute pain) Rat (40 g) nmol / Second phase (chronic pain) Rat (40 g) nmol: Table 2, per 40 g rat; for recalculated effective concentration (second phase): assuming 40 g rat body weight; for number of nocifensive events triggered by the injection of formalin: co-injection 100 μL with formalin. As for the experimental part: FIG. 6. Effects of subcutaneous Ap4A analogues on pain responses induced by intraplantar (right hindpaw) formalin injection. Rats were subcutaneously injected with formalin solution alone (0.5%, 50 μL, control) or co-injected with the formalin solution and solutions with AppCH2ppA (1 μM-100 μM, 100 μL) or AppNHppA (0.1 μM-100 μM, 100 μL). Age-matched control animals were injected with saline. A. Time-course of the effects of subcutaneous AppCH2ppA (a) and AppNHppA (b) on the number of the spontaneous jerkings of the injected paw. B. Bar-graphs of the effects of AppCH2ppA (a, b) and AppNHppA (c, d) on the integral number of spontaneous jerkings. Measurements were made during the acute phase (0-6 min) and tonic phase (7-45 min) of the formalin response. C. Dose-response curves for AppCH2ppA (a) and AppNHppA (b) during tonic and acute phases.
The formalin test experiments were performed on 21-day old male Wistar rats, weighing 40±5 g according to the method described previously (Simonetti et al, 2006; Yegutkin et al, 2008). Briefly, animal was acclimated to an acrylic observation chamber for at least 1 h before the injection of formalin ([…] of 0.5% solution in 0.9% saline) into the dorsal surface of the right hindpaw. Age-matched control animals were injected with saline (100 μL). Immediately after the injection, each animal was returned to the observation chamber and its behavioural characteristics were recorded for 45 min. We noticed consistently observed type of response: spontaneous jerking of the injected paw. The number of jerks was measured for each […], using self-developed computer software.
The effects of AppNHppA and AppCH2ppA were examined on the behavioral reactions of rats in inflammatory pain models. Injection of diluted formalin into a rodent's hindpaw produces a biphasic nociceptive response consisting of immediate (acute phase) and tonic (inflammatory phase) components. The first phase of a formalin response (i.e. 0-5 min after injection) involves a direct effect of formalin on the pain receptors, while changes in animal behavior during the second tonic phase (i.e. 7-45 min after injection) are caused by hyperalgesia that develops due to the sensitization of nociceptive and spinal neurons via mechanisms that are triggered by repetitive stimulation during the first phase.

Series [3] addresses T1, rat homomeric P2X7 receptors (Rattus norvegicus, UniProt Q64663).
T1 construct: expressed in transfected cells
T1 sequence (Q64663 1-595): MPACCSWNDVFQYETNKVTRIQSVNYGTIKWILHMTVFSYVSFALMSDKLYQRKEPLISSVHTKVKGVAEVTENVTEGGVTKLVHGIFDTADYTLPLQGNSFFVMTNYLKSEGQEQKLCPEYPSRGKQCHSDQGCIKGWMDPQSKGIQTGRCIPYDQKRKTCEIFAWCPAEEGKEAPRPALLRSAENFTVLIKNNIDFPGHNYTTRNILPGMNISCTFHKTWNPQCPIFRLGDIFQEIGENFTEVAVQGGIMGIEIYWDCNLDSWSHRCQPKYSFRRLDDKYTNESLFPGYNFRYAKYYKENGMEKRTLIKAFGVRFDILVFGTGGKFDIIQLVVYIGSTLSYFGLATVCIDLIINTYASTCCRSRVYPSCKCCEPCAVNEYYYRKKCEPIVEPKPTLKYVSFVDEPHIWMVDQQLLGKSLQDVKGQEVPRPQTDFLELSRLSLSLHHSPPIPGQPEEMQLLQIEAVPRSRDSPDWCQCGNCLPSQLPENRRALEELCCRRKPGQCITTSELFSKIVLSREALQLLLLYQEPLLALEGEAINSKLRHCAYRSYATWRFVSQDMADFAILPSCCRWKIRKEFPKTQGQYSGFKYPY
In words: Whole-cell patch clamp, rat homomeric P2X7 receptors. Particulars: 1 μM; ATP. The class given is cell-based. As to the method:
FIG. 4. […] A. Example traces of responses induced by 10 μM ATP applied for 2 s every 2 min to HEK cells expressing rat homomeric P2X2 receptors in the presence and absence of 1 μM AppNHppA. B. Comparison of currents induced by the full agonist of P2X2 receptors, ATP, in the presence of 1 μM AppNHppA (right) and absence (left). C. The time course of the current in the presence and absence of 1 μM AppNHppA. D. Comparison of currents induced by the full agonist of rat homomeric P2X4 and P2X7 receptors, ATP, in the presence of 1 μM AppNHppA (right) and absence (left). Experiments were performed as in FIG. 2.
Trigeminal, nodose, DRG neurons or HEK cells were recorded in the whole-cell configuration while being continuously superfused (at 2 mL/min) with control solution containing (in mM): 152 NaCl, 5 KCl, 1 MgCl2, 2 CaCl2, 10 glucose, and 10 HEPES; pH was adjusted to 7.4 with NaOH and osmolarity was adjusted to 320 mOsM with glucose. […] Responses to selective P2X3 receptor agonist α,β-methylene-ATP (α,β-meATP; resistant to ectoATPase hydrolysis, Sigma-Aldrich) were measured using an EPC-9 amplifier and HEKA Patch Master software (HEKA Electronik, Germany). Cells were voltage-clamped at −70 mV. In most cells, series resistance was compensated by 80%. […]
Background: In patch-clamp work, channel activity is measured electrically.

The mark [4] stands for this setting: Table 1, concentration, read-out: IC50 First phase (acute pain).
Where [5] appears, read: Table 1, concentration, read-out: IC50 Second phase (chronic pain).
The mark [6] stands for this setting: co-injection (100 μL) with formalin into paw, read-out: IC50 in the first (acute) phase.
[7] abbreviates: co-injection (100 μL) with formalin into paw, read-out: IC50 in the second (tonic) phase.

Structures are written as SMILES. Entries after “also recorded” stand apart in the source; their conditions may differ. Where two headings read alike, the source gives them in different places.

For the molecule `Nc1ncnc2c1ncn2[C@@H]1O[C@H](COP(=O)(O)OP(=O)(O)CP(=O)(O)OP(=O)(O)OC[C@H]2O[C@@H](n3cnc4c(N)ncnc43)C(O)C2O)C(O)C1O` (stereo in doubt) [AppCH2ppA], the “effect on thermal hyperalgesia (PWL)” value in series [1] (100 μL, subcutaneous) is given as “reduced thermal hyperalgesia”. Also, in series [1] (sub-cutaneous, thermal hyperalgesia, PWL), the antinociceptive effect is reported as 62%. In addition, in series [2], the “nociceptive behavior after control injection of compound alone” value is “Lack of nociceptive behavior”; the “IC50 First phase (acute pain), calculated” value is given as 80 ± 5.5 nmol/kg; the “IC50 Second phase (chronic pain), calculated” value is on record as 1.28 + 0.06 nmol/kg; the “First phase (acute pain)” value was determined as 80 ± 5.5 nmol/kg. Further, in series [2], the “First phase (acute pain) (μg/kg)” value is given as “(67) μg/kg”, the “Second phase (chronic pain)” value amounted to 1.28 ± 0.06 nmol/kg, the “Second phase (chronic pain) (μg/kg)” value is on record as “(1.067) μg/kg” and the “First phase (acute pain) Human (70 kg) nmol” value was 5600 nmol. In addition, in series [2], the “Second phase (chronic pain) Human (70 kg) nmol” value is listed as 89.6 nmol, the “First phase (acute pain) Rat (40 g) nmol” value was determined as 3.2 nmol, the “Second phase (chronic pain) Rat (40 g) nmol” value is reported as 0.0512 nmol and the “recalculated effective concentration (second phase)” value is on record as 1.28±0.06 nmolkg. For the same molecule, the “number of nocifensive events triggered by the injection of formalin” value in series [2] was “potently reduced”. Moreover, in series [2] (setting [4]), the IC50 worked out at 32000 ± 2200 nM. In addition, the IC50 in series [2] (setting [5]) stood at 510 ± 60 nM. Further, the concentration for half-maximal inhibition (IC50) in series [2] (setting [6]) was determined as 31900 ± 22000 nM. Further, the concentration for half-maximal inhibition (IC50) in series [2] (setting [7]) worked out at 500 ± 60 nM. Further, in series [2] (co-injection with formalin), the “kH, first (acute) phase” value was 0.82±0.09 and the “kH, second (tonic) phase” value amounted to 0.89±0.18. Also, in series [2] (rat, in vivo), the “times more effective reduction of nocifensive behavior in second (tonic) phase compared with first (acute) phase” value amounted to 60 times.

For `Nc1ncnc2c1ncn2[C@@H]1O[C@H](COP(=O)(O)OP(=O)(O)NP(=O)(O)OP(=O)(O)OC[C@H]2O[C@@H](n3cnc4c(N)ncnc43)C(O)C2O)C(O)C1O` (stereo in doubt) [AppNHppA], the “effect on P2X7 receptor-mediated currents” value in series [3] is listed as “not observed to produce any effects; also recorded: non-inhibitory effect”. Moreover, in series [2], the “nociceptive behavior after control injection of compound alone” value was “Lack of nociceptive behavior”; the “IC50 First phase (acute pain), calculated” value is greater than 250 nmol/kg; the “IC50 Second phase (chronic pain), calculated” value is on record as 0.63 ± 0.23 nmol/kg; the “First phase (acute pain)” value is recorded as greater than 250 nmol/kg. Further, in series [2], the “First phase (acute pain) (μg/kg)” value is listed as “(209) μg/kg”, the “Second phase (chronic pain)” value is on record as 0.63 ± 0.23 nmol/kg, the “Second phase (chronic pain) (μg/kg)” value was “(0.526) μg/kg” and the “First phase (acute pain) Human (70 kg) nmol” value is listed as 17500 nmol. Moreover, in series [2], the “Second phase (chronic pain) Human (70 kg) nmol” value was 44.1 nmol, the “First phase (acute pain) Rat (40 g) nmol” value stood at 10 nmol, the “Second phase (chronic pain) Rat (40 g) nmol” value is on record as 0.0252 nmol and the “recalculated effective concentration (second phase)” value is recorded as 0.63±0.23 nmolkg. For the same molecule, in series [2], the “number of nocifensive events triggered by the injection of formalin” value is listed as “potently reduced”. In addition, the IC50 in series [2] (setting [4]) was greater than 100000 nM. The half-inhibitory concentration (IC50) in series [2] (setting [5]) is 250 ± 90 nM. For the same molecule, the IC50 in series [2] (setting [6]) is greater than 100000 nM. Further, the half-maximal inhibitory concentration (IC50) in series [2] (setting [7]) is 250 ± 60 nM. In addition, the “kH, second (tonic) phase” value in series [2] (co-injection with formalin) turned out to be 0.89±0.18.

These data come from patent US20150119352A1, “DINUCELOSIDE POLYPHOSPHATES FOR THE TREATMENT OF PAIN” (GlobalAcorn Ltd., priority 2012, published 2015).
